Test results: US9018395B2, “Pyrazolopyridine and pyrazolopyrimidine derivatives as melanocortin-4 receptor modulators” (Université de Montréal, priority 2011, dated 2015)
Non-standard residues stand in square brackets, D forms with d. Nle = CCCC[C@H](N)C(=O)O

Assays:
MC4R/MC3R = settings: cited from earlier work
MC4R/MC5R = settings: cited from earlier work
MC4R = settings: cited from earlier work
[1] = in vivo; cited from earlier work
[2] = target: T1, wild-type human melanocortin 4 receptor (WT-hMC4R) (Homo sapiens, UniProt P32245); assay: Cyclic AMP assay (HTRF), antagonist competition against NDP-α-MSH; format: cell-based; settings: HEK293T cells expressing double-tagged WT-hMC4R; cAMP accumulation; 1 hour compound then 4 nM NDP-α-MSH 30 min
T1 construct: expressed in transfected cells; cDNA from UMR cDNA resource center
T1 sequence (P32245 whole entry): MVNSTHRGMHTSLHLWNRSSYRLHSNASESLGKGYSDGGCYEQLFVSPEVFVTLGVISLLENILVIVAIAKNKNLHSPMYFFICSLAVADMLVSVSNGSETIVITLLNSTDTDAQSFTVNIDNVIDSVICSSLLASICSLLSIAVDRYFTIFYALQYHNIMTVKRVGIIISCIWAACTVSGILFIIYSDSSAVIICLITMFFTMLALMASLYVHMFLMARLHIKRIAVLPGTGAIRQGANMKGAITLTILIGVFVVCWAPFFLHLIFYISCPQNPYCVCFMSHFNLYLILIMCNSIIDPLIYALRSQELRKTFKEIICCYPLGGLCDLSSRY
In short: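 HEK293T cells stably expressing N-terminal 3xHA, C-terminal venus-YFP tagged WT-hMC4R, in D-PBS with 0.75 mM IBMX; compound (0.01 nM-10 μM) 1 h at 37° C, then 4 nM NDP-α-MSH 30 min. cAMP by HTRF competitive immunoassay; IC50 from sigmoidal variable-slope fit.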

| Molecule | IC50 [2] | further results |
| --- | --- | --- |
| Ac-Nle-Gly-Lys-D-Phe-Arg-Trp-Gly-NH(2) (Ac-[Nle]GK[dF]RWG-NH2; SMILES CCCC[C@H](NC(C)=O)C(=O)NCC(=O)N[C@@H](CCCCN)C(=O)N[C@H](Cc1ccccc1)C(=O)N[C@@H](CCCNC(=N)N)C(=O)N[C@@H](Cc1c[nH]c2ccccc12)C(=O)NCC(N)=O) | – | selectivity for MC4R as compared to MC3R (MC4R/MC3R): 90 fold; selectivity for MC4R as compared to MC5R (MC4R/MC5R): 110 fold; activity in vivo (MC4R): active in vivo; blood-brain barrier crossing [1]: crossed the blood-brain barrier |
| Ac-Nle-Gly-Lys-D-Nal(2)-Arg-Trp-Gly-NH(2) | – | selectivity for MC4R as compared to MC3R (MC4R/MC3R): 34 fold; selectivity for MC4R as compared to MC5R (MC4R/MC5R): 109 fold; activity in vivo (MC4R): active in vivo; blood-brain barrier crossing [1]: crossed the blood-brain barrier |
| CC(=O)c1ccccc1-c1nn2ccc(C(=O)N(CCC(C)C)CCC(C)C)cc2c1CCCN1CCCCC1 [Example 40] | 1 to 5 µM | – |
| CCCN(CC1CC1)C(=O)c1ccn2nc(-c3ccc(OC)cc3)c(/C=C/CN3CCCCC3)c2c1 [Example 26] | 5 to 15 µM | – |
| COc1ccc(-c2nn3ccc(C(=O)N(CCC(C)C)CCC(C)C)cc3c2/C=C/CN2CCCC(F)C2)cc1 (stereo not shown) [Example 158] | 1 to 5 µM | – |
| COc1ccc(-c2nn3ccc(C(=O)N(CCC(C)C)CCC(C)C)cc3c2CCCN2CCCCC2)cc1 [Example 2] | 1 to 5 µM | – |
| CC(C)CCN(CCC(C)C)C(=O)c1ccn2nc(-c3ccc(C(C)O)cc3)c(CCCN3CCOCC3)c2c1 (stereo not shown) [Example 118] | 1 to 5 µM | – |
| COc1ccc(NC(=O)c2nn3ccc(C(=O)N(CCC(C)C)CCC(C)C)cc3c2/C=C/CN2CCCCC2)cc1 [Example 117] | 1 to 5 µM | – |
| CC(C)CCN(CCC(C)C)C(=O)c1ccn2nc(-c3ccc(C(C)(C)C)cc3)c(CCCN3CCCCC3)c2c1 [Example 4] | 1 to 5 µM | – |
| CC(C)CCN(CCC(C)C)C(=O)c1ccn2nc(-c3ccccc3)c(CCCN3CCCCC3)c2c1 [Example 55] | 1 to 5 µM | – |
| CCCCN(CCCC)CCCc1c(-c2ccc(OC)cc2)nn2ccc(C(=O)N(CCCC)CCCC)cc12 [Example 112] | 1 to 5 µM | – |
| CC(C)CCN(CCC(C)C)C(=O)c1ccn2nc(C(=O)N3CCOCC3)c(CCCN3CCCCC3)c2c1 [Example 141, N,N-diisopentyl-2-(morpholine-4-carbonyl)-3-(3-(piperidin-1-yl)propyl)pyrazolo[1,5-a]pyridine-5-carboxamide] | 5 to 15 µM | – |
| CCOc1ccc(-c2nn3ccc(C(=O)N(CCC(C)C)CCC(C)C)cc3c2CCCN2CCOCC2)cc1 [Example 166] | 1 to 5 µM | – |
| N,N-Diisopentyl-2-(4-methoxyphenyl)-3-(3-(piperidin-1-yl)propyl)pyrazolo[1,5-a]pyrimidine-5-carboxamide [Example 89] | 1 to 5 µM | – |
| CCCCN(CCCC)C(=O)c1ccn2nc(-c3ccc(OC)cc3)c(/C=C/CN3CCCCC3)c2c1 [Example 12, (E)-N,N-Dibutyl-2-(4-methoxyphenyl)-3-(3-(piperidin-1-yl)prop-1-enyl)pyrazolo[1,5-a]pyridine-5-carboxamide] | 1 to 5 µM | – |
| COc1ccc(-c2nn3ccc(C(=O)N(CCC(C)C)CCC(C)C)cc3c2/C=C/CN(C)C)cc1 [Example 17] | 5 to 15 µM | – |
| CCN(CC)C/C=C/c1c(-c2ccc(OC)cc2)nn2ccc(C(=O)N(CCC(C)C)CCC(C)C)nc12 [Example 100] | 5 to 15 µM | – |
| COc1ccc(-c2nn3ccc(C(=O)N(CCC4CC4)CCC4CC4)cc3c2/C=C/CN2CCCCC2)cc1 [Example 108] | 1 to 5 µM | – |
| COc1ccc(-c2nn3ccc(C(=O)N(CCC(C)C)CCC(C)C)cc3c2CCCN2CCC(C)CC2)cc1 [Example 146] | 1 to 5 µM | – |
| CC(C)CCN(CCC(C)C)C(=O)c1ccn2nc(-c3ccc(C(C)(C)C)cc3)c(/C=C/CN3CCCCC3)c2c1 [Example 5] | 1 to 5 µM | – |
| COc1ccc(-c2nn3ccc(C(=O)N(CCC(C)C)CCC(C)C)cc3c2/C=C/CN2CCCCCC2)cc1 [Example 106] | 1 to 5 µM | – |
| COc1ccc(Cl)cc1-c1nn2ccc(C(=O)N(CCC(C)C)CCC(C)C)cc2c1C#CCN1CCCCC1 [Example 101] | < 0.5 µM | – |
| CCOC(=O)c1ccc(NC(=O)c2nn3ccc(C(=O)N(CCC(C)C)CCC(C)C)cc3c2/C=C/CN2CCCCC2)cc1 [Example 122] | 1 to 5 µM | – |
| COc1ccc(-c2nn3ccc(C(=O)N(CCC(C)C)CCC(C)C)cc3c2/C=C/CN2CCOCC2)cc1 [Example 123] | 1 to 5 µM | – |
| CCOc1ccc(-c2nn3ccc(C(=O)N(CCC(C)C)CCC(C)C)cc3c2CCCN2CCC(C(F)(F)F)CC2)cc1 [Example 82] | 5 to 15 µM | – |
